Data from PubChem BioAssay (NCI).
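Compound exposure: 48 hours, 5 concentrations, 96-well plates. GI50 is the concentration that inhibits growth by half. The concentration for full growth arrest is given as TGI.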

Experiments:
Assay in all cases: NCI-60 cell line screen, 48 h
HL-60(TB) leukemia = tested on: HL-60(TB) leukemia
HOP-62 NSCLC = tested on: HOP-62 NSCLC
HS 578T breast = tested on: HS 578T breast
KM12 colon = tested on: KM12 colon
MALME-3M melanoma = tested on: MALME-3M melanoma
MDA-MB-231 breast = tested on: MDA-MB-231 breast
NCI-H522 lung = tested on: NCI-H522 lung
RXF 393 renal = tested on: RXF 393 renal
SK-MEL-28 melanoma = tested on: SK-MEL-28 melanoma
SN12C renal = tested on: SN12C renal

SMILES | GI50 (HL-60(TB) leukemia) [µM] | TGI (HL-60(TB) leukemia) [µM] | GI50 (HOP-62 NSCLC) [µM] | TGI (HOP-62 NSCLC) [µM] | GI50 (HS 578T breast) [µM] | TGI (HS 578T breast) [µM] | GI50 (KM12 colon) [µM] | TGI (KM12 colon) [µM] | GI50 (MALME-3M melanoma) [µM] | TGI (MALME-3M melanoma) [µM] | GI50 (MDA-MB-231 breast) [µM] | TGI (MDA-MB-231 breast) [µM] | GI50 (NCI-H522 lung) [µM] | TGI (NCI-H522 lung) [µM] | GI50 (RXF 393 renal) [µM] | TGI (RXF 393 renal) [µM] | GI50 (SK-MEL-28 melanoma) [µM] | TGI (SK-MEL-28 melanoma) [µM] | GI50 (SN12C renal) [µM] | TGI (SN12C renal) [µM]
COc1cc2cc(Oc3ccc(NC(=O)Nc4cccc(C(F)(F)F)c4)cc3)c(C)nc2cc1OC | 1.56 | 3.91 | 2.33 | 8.44 | 1.44 | 4.22 | 1.42 | 5.92 | 1.71 | 4.9 | 1.13 | 4.15 | 1.32 | 4.49 | 1.63 | 4.97 | 1.97 | 8.37 | 2.06 | 16.3
N[C@@H]1CCCC[C@H]1N.O=C([O-])C(=O)[O-].[Pt+4] | 2.83 | > 100 | 46.2 | > 100 | > 100 | > 100 | 10.9 | > 100 | 3.22 | 26.6 | > 100 | > 100 | 3.92 | 32.3 | 8.13 | > 39.8 | 2.63 | 24.2 | 2.56 | > 100
O=C(c1ccco1)c1nc2cc(Cl)ccc2[n+]([O-])c1C(F)(F)F | 24.3 | 46.8 | 76.7 | > 100 | > 100 | > 100 | 29.3 | > 100 | 47.9 | > 100 | 34.2 | > 100 | 45.1 | > 100 | 19.5 | 59.2 | 90.1 | > 100 | 91 | > 100
O=c1ccn(C2OC(CO/N=C/c3ccc(O)c(O)c3O)C(O)C2O)c(=O)[nH]1 (stereo not given) | 26.9 | 68.1 | 67.6 | > 100 | 22.8 | 59.7 | 35.4 | > 100 | 10.1 | > 100 | 30 | > 100 | 50.6 | > 100 | 23 | 73.9 | > 100 | > 100 | 20.1 | 38.7
Cc1cc(S(N)(=O)=O)c(S/C(CC(C)C)=N\Nc2ccc([N+](=O)[O-])cc2)cc1Cl | 7.07 | > 100 | 13.5 | 26.4 | 11.9 | 30.1 | 3.32 | 13.2 | 12.5 | 25 | 2.77 | 9.52 | 18.8 | 72.2 | 4.13 | 19 | 13.9 | 27.8 | 2.76 | 9.88
Ic1ccccc1-c1ccccc1 | 37.1 | > 100 | > 100 | > 100 | > 100 | > 100 | > 100 | > 100 | 96.2 | > 100 | > 100 | > 100 | > 100 | > 100 | 89.1 | > 100 | > 100 | > 100 | > 100 | > 100
CC(C)(C)c1nn(-c2ccccc2)c2c1C(=O)CSC(c1ccccc1Cl)N2 (stereo not given) | 2.28 | 10.2 | 4.47 | 21.8 | 1.26 | 7.22 | 1.48 | 14.7 | 14.7 | 32.6 | 3.57 | 16 | 0.65 | 7.34 | 0.545 | 3.11 | 5.18 | 22.5 | 3.26 | 14.7
Nc1c(Br)cc(Br)c2c1[nH]c(=O)c1ccccc12 | > 100 | > 100 | 2.56 | 6.39 | 3.07 | 30 | > 100 | > 100 | 3.43 | 10.1 | 2.36 | 61.1 | 50.9 | > 100 | 4.7 | 22.1 | > 45.9 | > 100 | 8.09 | > 100
CCC(CO)Nc1nc(NCc2ccccc2O)c2ncn(C(C)C)c2n1 (stereo not given) | 2.08 | 4.58 | 5.62 | > 100 | 3.1 | 16.7 | 3.92 | > 100 | 40.1 | > 100 | 4.22 | 38 | 1.8 | 8.52 | 3.29 | > 100 | 2.35 | 12.8 | 2.77 | 37.5
Cn1c(/C=C(\C#N)c2ccccc2)nc2c(N3CCOCC3)nc(Cl)nc21 | 0.462 | 2.61 | 1.58 | 3.51 | 1.69 | 5.64 | 1.87 | 3.77 | 1.45 | 2.86 | 1.31 | 2.92 | 0.74 | 2.47 | 0.89 | 2.14 | 1.57 | 2.96 | 1.12 | 2.48
COC1CC2CCC(C)C(O)(O2)C(=O)C(=O)N2CCCCC2C(=O)OC(C(C)CC2CCC(O)C(OC)C2)CC(=O)C(C)C=C(C)C(O)C(OC)C(=O)C(C)CC(C)/C=C/C=C/C=C1C (stereo not given) | 10.2 | 23.6 | 0.159 | 9.96 | 0.00742 | 24.4 | 3.47 | 11.2 | < 0.005 | 8.36 | 4.32 | 12.9 | 1.99 | 11.3 | < 0.005 | 7.48 | 3.23 | 11.2 | 5.24 | 14.6
Cc1c(-c2c(-c3ccc(F)o3)sc3ncnc(O[C@H](Cc4ccccc4OCc4ccnn4CC(F)(F)F)C(=O)O)c23)ccc(OCCN2CCN(C)CC2)c1Cl | 0.0173 | 0.195 | 5.31 | 14.3 | 1.53 | 9.42 | 4 | 7.99 | 3.37 | 7.52 | 3.8 | 7.84 | 0.148 | 4.58 | 2.77 | 6.1 | 3.84 | 7.82 | 4.05 | 9.62
